Test results from paper PMC6739215, “One-bead one-compound combinatorial library derived targeting ligands for detection and treatment of oral squamous cancer” (Oncotarget, 2019).
Entries after “also recorded” stand apart in the source; their conditions may differ. Where two headings read alike, the source gives them in different places.

How the values were obtained:
[1] = tested on: human oral cancer cells HSC-3; experiment: Flow cytometry study of binding affinity of ligands; conditions: HSC-3 cells; for Kd: biotinylated peptide followed by streptavidin-PE
Experimental: Flow cytometry was employed to compare the binging affinity of LLY12 and LLY13 [25–27]. Confluent tumor cells (80–90%) were dissociated with 0.05% trypsin-EDTA and neutralized with culture medium. After washed three times with F10 buffer, containing PBS with 10% FBS and 1 mM MnCl2 , the human oral cancer cells HSC-3 (3 × 10^5) were added with different concentration of biotinylated LLY12 and LLY13 in 50 μL F10 media for 30 minutes on ice. Then each sample was washed three times with 1 mL PBS containing 1% FBS. Samples thereafter were incubated with a 1:500 dilution of streptavidin-phycoerythrin (1 mg/mL) for 30 min on ice followed by a single wash with 1 mL of PBS containing 1% FBS. Finally, the samples in PBS were analyzed by flow cytometry and the mean fluorescence intensity (MFI) was acquired for each individual sample.

[2] = tested on: normal human keratinocyte (NHK) cells; experiment: MTS assay evaluation of cytotoxicity; format: cell-based; conditions: 48 hours treatment, up to 50 μM
Experimental: MTS assay was used to evaluate the potential cytotoxicity of peptides against normal human keratinocytes. Briefly, 2 × 10^3 NHK cells were seeded in 96 well tissue culture plates and analysis was performed 48 hours after treatment with LLY12 and LLY13 by adding 20 μL per well of the tetrazolium salt MTS, 3-(4,5-dimethylthiazol-2-yl)-5-(3-carboxymethoxyphenyl)-2-(4-sulfophenyl)-2H-tetrazolium for 2 hours at 37° C. The 96 well plates were read on a VERSA max tunable microplate reader at 490 nm. Similar to the MTT assay, the reduction of MTS solutions to formazan reflects mitochondrial activity and cell viability by proxy.

[3] = tested on: HSC-3 cells and MOK-101 cells; experiment: Peptide induced cell uptake assay (confocal); format: cell-based, human; conditions: HSC-3 and MOK-101 cells, up to 3 hours, cytoplasm and nucleus
Experimental: Peptide induced cell uptake assay was used to investigate endocytic uptake of the targeting peptide by live OSC cells. Biotinylated LLY13 was pre-incubated (50 μM) with streptavidin-Alexa488 (1mg/mL) for 2 hours at room temperature and then at 4° C overnight to form the biotin-peptides/streptavidin-Alexa488 complex. Oral cancer cells of HSC-3 cells and MOK-101 were seeded in chamber slides at a concentration of 2.3 × 10^4 cells. After 60% confluency, biotin-peptides-streptavidin-Alexa488 complexes were added at different time intervals (30 min, one hour, two hours and three hours). By the end of experiments, 1:2000 dilution of DAPI was added to the specimens. Peptide induced endocytic uptake of cancer cells was observed under confocal laser scanning microscope.

cyclic cdGYG (Hyp) Wc [LLY13] was tested, and the Kd ([1]; Figure 4, read-out: Kd) was 1230 nM, the Kd ([1]; read-out: Kd value) was 1270 nM and the “Bmax value (maximum binding capacity)” value ([1]; flow cytometry) was 764. The “maximum binding capacity in comparison to LLY12” value ([1]; flow cytometry) was “around 3 fold”, the “Bmax (maximum binding)” value ([1]; flow cytometry, Figure 4) was 764 AU and the “cytotoxicity (MTS assay)” value [2] was “no obvious cytotoxicity; also recorded: not cytotoxic”.

With cyclic cdG (Nle) G(Hyp) Lc [LLY12] the Kd ([1]; read-out: Kd value) was 870 nM, the “Bmax value (maximum binding capacity)” value ([1]; flow cytometry) was 248 and the “Bmax (maximum binding)” value ([1]; flow cytometry, Figure 4) was 248 AU. For the same substance, the “cellular uptake (internalization) by live OSC cells” value [3] was “not observed” and the “cytotoxicity (MTS assay)” value [2] was “no obvious cytotoxicity; also recorded: not cytotoxic”.
